Measured values as given in ChEMBL document CHEMBL3112450, “Synthesis and in vitro antitumor evaluation of primary amine substituted quinazoline linked benzimidazole” (Bioorg Med Chem Lett, 2014).

Key:
Type in all cases: functional
NCI-H322M = experiment: Cytotoxicity against human NCI-H322M cells assessed as cell growth at 10^-8 M after 48 hrs by SRB assay; conditions: read-out: Activity
MDA-MB-435 [1] = experiment: Cytotoxicity against human MDA-MB-435 cells assessed as cell growth at 10^-7 M after 48 hrs by SRB assay; conditions: MDA-MB-435, 48 h, read-out: Activity
ACHN = experiment: Cytotoxicity against human ACHN cells assessed as cell growth at 10^-4 M after 48 hrs by SRB assay; conditions: read-out: Activity
HOP-62 = experiment: Cytotoxicity against human HOP62 cells assessed as cell growth at 10^-6 M after 48 hrs by SRB assay; conditions: HOP-62, 48 h, read-out: Activity
U-251 = experiment: Cytotoxicity against human U251 cells assessed as cell growth at 10^-6 M after 48 hrs by SRB assay; conditions: U-251, 48 h, read-out: Activity
SK-MEL-28 [2] = experiment: Cytotoxicity against human SK-MEL-28 cells after 48 hrs by SRB assay; conditions: SK-MEL-28, 48 h
SK-MEL-5 = experiment: Cytotoxicity against human SK-MEL-5 cells assessed as cell growth at 10^-4 M after 48 hrs by SRB assay; conditions: SK-MEL-5, 48 h, read-out: Activity
SK-MEL-28 [3] = experiment: Cytotoxicity against human SK-MEL-28 cells assessed as cell growth at 10^-8 M after 48 hrs by SRB assay; conditions: SK-MEL-28, 48 h, read-out: Activity
NCI-H23 = experiment: Cytotoxicity against human NCI-H23 cells after 48 hrs by SRB assay; conditions: NCI-H23, 48 h
TK-10 = experiment: Cytotoxicity against human TK10 cells after 48 hrs by SRB assay; conditions: TK-10, 48 h
SF-295 = experiment: Cytotoxicity against human SF295 cells assessed as cell growth at 10^-7 M after 48 hrs by SRB assay; conditions: SF-295, 48 h, read-out: Activity
HCT-15 = experiment: Cytotoxicity against human HCT15 cells assessed as cell growth at 10^-4 M after 48 hrs by SRB assay; conditions: HCT-15, 48 h, read-out: Activity
RXF 393 = experiment: Cytotoxicity against human RXF393 cells assessed as cell growth at 10^-8 M after 48 hrs by SRB assay; conditions: RXF 393, 48 h, read-out: Activity
OVCAR-3 = experiment: Cytotoxicity against human OVCAR3 cells assessed as cell growth at 10^-8 M after 48 hrs by SRB assay; conditions: OVCAR-3, 48 h, read-out: Activity
[4] = Cytotoxicity against human UO31 cells assessed as cell growth at 10^-6 M after 48 hrs by SRB assay; conditions: UO-31, 48 h, read-out: Activity
NCI-H226 [5] = experiment: Cytotoxicity against human NCI-H226 cells assessed as cell growth at 10^-7 M after 48 hrs by SRB assay; conditions: NCI-H226, 48 h, read-out: Activity
NCI-H522 = experiment: Cytotoxicity against human NCI-H522 cells assessed as cell growth at 10^-4 M after 48 hrs by SRB assay; conditions: NCI-H522, 48 h, read-out: Activity
HCT-116 = experiment: Cytotoxicity against human HCT116 cells assessed as cell growth at 10^-4 M after 48 hrs by SRB assay; conditions: HCT-116, 48 h, read-out: Activity
DU-145 = experiment: Cytotoxicity against human DU145 cells assessed as cell growth at 10^-6 M after 48 hrs by SRB assay; conditions: DU-145, 48 h, read-out: Activity
MDA-MB-435 [6] = experiment: Cytotoxicity against human MDA-MB-435 cells assessed as cell growth at 10^-6 M after 48 hrs by SRB assay; conditions: MDA-MB-435, 48 h, read-out: Activity
OVCAR-8 = experiment: Cytotoxicity against human OVCAR8 cells after 48 hrs by SRB assay; conditions: OVCAR-8, 48 h
[7] = Cytotoxicity against human OVCAR5 cells assessed as cell growth at 10^-4 M after 48 hrs by SRB assay; conditions: OVCAR-5, 48 h, read-out: Activity
[8] = Cytotoxicity against human OVCAR5 cells assessed as cell growth at 10^-7 M after 48 hrs by SRB assay; conditions: OVCAR-5, 48 h, read-out: Activity
[9] = Cytotoxicity against human UACC257 cells assessed as cell growth at 10^-8 M after 48 hrs by SRB assay; conditions: UACC-257, 48 h, read-out: Activity
M14 = experiment: Cytotoxicity against human M14 cells after 48 hrs by SRB assay; conditions: M14, 48 h
CCRF-CEM = experiment: Cytotoxicity against human CCRF-CEM cells after 48 hrs by SRB assay
[10] = Cytotoxicity against human UO31 cells after 48 hrs by SRB assay; conditions: UO-31, 48 h
BT-549 [11] = experiment: Cytotoxicity against human BT549 cells assessed as cell growth at 10^-8 M after 48 hrs by SRB assay; conditions: BT-549, 48 h, read-out: Activity
BT-549 [12] = experiment: Cytotoxicity against human BT549 cells after 48 hrs by SRB assay; conditions: BT-549, 48 h
K562 = experiment: Cytotoxicity against human K562 cells after 48 hrs by SRB assay; conditions: K562, 48 h
[13] = Cytotoxicity against human OVCAR4 cells assessed as cell growth at 10^-4 M after 48 hrs by SRB assay; conditions: OVCAR-4, 48 h, read-out: Activity
SK-MEL-28 [14] = experiment: Cytotoxicity against human SK-MEL-28 cells assessed as cell growth at 10^-6 M after 48 hrs by SRB assay; conditions: SK-MEL-28, 48 h, read-out: Activity
MCF7 = experiment: Cytotoxicity against human MCF7 cells after 48 hrs by SRB assay; conditions: MCF7, 48 h
NCI-H226 [15] = experiment: Cytotoxicity against human NCI-H226 cells assessed as cell growth at 10^-4 M after 48 hrs by SRB assay; conditions: NCI-H226, 48 h, read-out: Activity
UACC-62 = experiment: Cytotoxicity against human UACC62 cells assessed as cell growth at 10^-7 M after 48 hrs by SRB assay; conditions: UACC-62, 48 h, read-out: Activity
SR = experiment: Cytotoxicity against human SR cells assessed as cell growth at 10^-6 M after 48 hrs by SRB assay; conditions: read-out: Activity
[16] = Cytotoxicity against human UACC257 cells assessed as cell growth at 10^-6 M after 48 hrs by SRB assay; conditions: UACC-257, 48 h, read-out: Activity
SF-539 = experiment: Cytotoxicity against human SF539 cells assessed as cell growth at 10^-8 M after 48 hrs by SRB assay; conditions: SF-539, 48 h, read-out: Activity
MDA-MB-231 = experiment: Cytotoxicity against human MDA-MB-231 cells assessed as growth inhibition at 10 uM after 48 hrs by SRB assay; conditions: MDA-MB-231, 48 h, read-out: GI

Molecule `C=CCn1c(C)nc2ccc(Nc3nc(Nc4ccc5nc(C)n(CC=C)c5c4)c4ccccc4n3)cc21` has a growth at 0.01 µM (NCI-H322M) of 89%, a growth at 0.1 µM (MDA-MB-435 [1]) of 98% and a growth at 100 µM (ACHN) of -69%. The growth at 1 µM (HOP-62) was 90%, the growth at 1 µM (U-251) was 89% and the GI50 (SK-MEL-28 [2]) was 1.84 µM. For the same molecule, the TGI (SK-MEL-28 [2]) was 3.28 µM, the growth at 100 µM (SK-MEL-5) was -24% and the growth at 0.01 µM (SK-MEL-28 [3]) was 98%. It also gave a GI50 (NCI-H23) of 1.72 µM, a TGI (NCI-H23) of 3.23 µM and a GI50 (TK-10) of 2.04 µM. For the same molecule, the TGI (TK-10) was 3.5 µM, the growth at 0.1 µM (SF-295) was 98% and the growth at 100 µM (HCT-15) was -15%. For the same molecule, the growth at 0.01 µM (RXF 393) was 95%, the growth at 0.01 µM (OVCAR-3) was 99% and the growth at 1 µM [4] was 71%. For the same molecule, the growth at 0.1 µM (NCI-H226 [5]) was 86%, the growth at 100 µM (NCI-H522) was -15% and the growth at 100 µM (HCT-116) was 1%. The growth at 1 µM (DU-145) was 104%, the growth at 1 µM (MDA-MB-435 [6]) was 92% and the GI50 (OVCAR-8) was 1.56 µM. For the same molecule, the TGI (OVCAR-8) was 3.25 µM, the growth at 100 µM [7] was -75% and the growth at 0.1 µM [8] was 91%. It also gave a growth at 0.01 µM [9] of 90%, a GI50 (M14) of 1.62 µM and a TGI (M14) of 3.04 µM. For the same molecule, the GI50 (CCRF-CEM) was 2.09 µM, the LC50 (CCRF-CEM) was over 100 µM and the GI50 [10] was 1.36 µM. It also gave a TGI [10] of 2.88 µM, a growth at 0.01 µM (BT-549 [11]) of 99% and a GI50 (BT-549 [12]) of 1.62 µM. The TGI (BT-549 [12]) was 3.16 µM, the GI50 (K562) was 1.42 µM and the LC50 (concentration killing 50% of cells) (K562) was over 100 µM. For the same molecule, the growth at 100 µM [13] was -43%, the growth at 1 µM (SK-MEL-28 [14]) was 102% and the GI50 (MCF7) was 1.54 µM. It also gave a TGI (MCF7) of 2.88 µM, a growth at 100 µM (NCI-H226 [15]) of -38% and a growth at 0.1 µM (UACC-62) of 94%. It also gave a growth at 1 µM (SR) of 72%, a growth at 1 µM [16] of 84% and a growth at 0.01 µM (SF-539) of 96%.
With `C=CCn1c(C)nc2ccc(Nc3nc(Nc4ccc(F)cc4)nc4ccccc34)cc21` the growth at 0.01 µM (NCI-H322M) was 87%, the growth at 0.1 µM (MDA-MB-435 [1]) was 100% and the growth at 100 µM (ACHN) was -73%. For the same molecule, the growth at 1 µM (HOP-62) was 95%, the growth at 1 µM (U-251) was 83% and the GI50 (SK-MEL-28 [2]) was 1.65 µM. It also gave an LC50 (SK-MEL-28 [2]) of 5.94 µM, a TGI (SK-MEL-28 [2]) of 3.13 µM and a growth at 100 µM (SK-MEL-5) of -69%. It also gave a growth at 0.01 µM (SK-MEL-28 [3]) of 95%, a GI50 (NCI-H23) of 4.23 µM and an LC50 (concentration giving 50% net cell kill) (NCI-H23) of over 100 µM. For the same molecule, the TGI (NCI-H23) was 26 µM, the GI50 (TK-10) was 6.83 µM and the LC50 (TK-10) was 75.5 µM. It also gave a TGI (TK-10) of 24.6 µM, a growth at 0.1 µM (SF-295) of 92% and a growth at 100 µM (HCT-15) of -38%. For the same molecule, the growth at 0.01 µM (RXF 393) was 98%, the growth at 0.01 µM (OVCAR-3) was 97% and the growth at 1 µM [4] was 83%. It also gave a growth at 0.1 µM (NCI-H226 [5]) of 93%, a growth at 100 µM (NCI-H522) of -58% and an inhibition of growth at 10 µM (MDA-MB-231) of 30%. For the same molecule, the growth at 100 µM (HCT-116) was -77%, the growth at 1 µM (DU-145) was 95% and the growth at 1 µM (MDA-MB-435 [6]) was 90%. The GI50 (OVCAR-8) was 3.05 µM, the LC50 (OVCAR-8) was over 100 µM and the TGI (OVCAR-8) was 13.6 µM. It also gave a growth at 100 µM [7] of -80%, a growth at 0.1 µM [8] of 101% and a growth at 0.01 µM [9] of 98%. It also gave a GI50 (M14) of 3.26 µM, a TGI (M14) of 14.2 µM and a CC50 (M14; read-out: LC50 (the source's name)) of over 100 µM. It also gave a GI50 (CCRF-CEM) of 3.01 µM, an LC50 (CCRF-CEM) of over 100 µM and a TGI (CCRF-CEM) of 11.7 µM. The GI50 [10] was 4.53 µM, the LC50 (concentration causing 50% net cell kill) [10] was 52.8 µM and the TGI [10] was 19.3 µM. The growth at 0.01 µM (BT-549 [11]) was 88%, the GI50 (BT-549 [12]) was 3.35 µM and the LC50 (BT-549 [12]) was 73.1 µM. For the same molecule, the TGI (BT-549 [12]) was 18.1 µM, the GI50 (K562) was 3.13 µM and the LC50 (concentration killing 50% of cells) (K562) was over 100 µM. The TGI (K562) was 11.9 µM, the growth at 100 µM [13] was -13% and the growth at 1 µM (SK-MEL-28 [14]) was 89%. The GI50 (MCF7) was 1.48 µM, the TGI (MCF7) was 3.44 µM and the growth at 100 µM (NCI-H226 [15]) was -5%. The growth at 0.1 µM (UACC-62) was 95%, the growth at 1 µM (SR) was 92% and the growth at 1 µM [16] was 92%. It also gave a growth at 0.01 µM (SF-539) of 99%.
